Reference: patent US20210246115A1 (Bioimics AB, priority 2017, published 2021)
In brackets after ≈: the same amount, converted by molar mass. Counter-ions that a name gives are not always drawn. Like-named read-outs stand apart in the source and are kept apart here.

What was measured:
[1] = test system: Staphylococcus aureus subsp. aureus (ATCC29213); assay: MIC, broth microdilution (CLSI), Staphylococcus aureus ATCC29213; assay type: cell-based; details: Staphylococcus aureus
[2] = test system: E. coli RNase P RNA, M1 RNA; assay: Inhibition of bacterial RNase P activity, IC50 determination (cleavage of pATSerUG by M1 RNA); assay type: biochemical; details: NI: No inhibition
[3] = test system: Escherichia coli (ATCC25922); assay: MIC, broth microdilution (CLSI), Escherichia coli; details: Escherichia coli, ATCC25922, read-out: E. coli ATCC 25922 MIC, Table XIII
[4] = ATCC29213, read-out: S. aureus ATCC 29213 MIC, Table XIII
[5] = ATCC29213, Table XIII, read-out: S. aureus ATCC 29213 MIC

For `Cc1cccc(C(CCNCC(N)CN)c2cn(C3CCCCC3)c3ccccc23)c1` (stereo not drawn) [Compound 394, N1-(3-(1-cyclohexyl-1H-indol-3-yl)-3-(m-tolyl)propyl)propane-1,2,3-triamine hydrochloride salt], the MIC [1, 4] was 8 µg/mL, the IC50 [2] was 15 µM and the MIC [3] was 32 µg/mL.
`N#Cc1ccc2c(C(CCNC3CCNCC3)c3cccc(OC(F)(F)F)c3)cn(C3CCCCC3)c2c1` (stereo not drawn) [Compound 414, 1-cyclohexyl-3-(3-(piperidin-4-ylamino)-1-(3-(trifluoromethoxy)phenyl)propyl)-1H-indole-6-carbonitrile hydrochloride salt] gave an MIC [1, 4] of 4 µg/mL, an IC50 [2] of 16 µM and an MIC [3] of 8 µg/mL.
`Cl.Cl.NCCCNCCCc1cn(C2CCCCC2)c2ccc(C3CCCCC3)cc12` [Compound 399, N1-(3-(1,5-dicyclohexyl-1H-indol-3-yl)propyl)propane-1,3-diamine hydrochloride salt] gave an MIC [1, 5] of 4 µg/mL, an IC50 [2] of 6.3 µM and an MIC [3] of 4 µg/mL.
`NCCCNC1CCCC(c2cn(C3CCCCC3)c3ccc(Br)cc23)C1` (stereo not drawn) [Compound 380, N1-(3-(5-bromo-1-cyclohexyl-1H-indol-3-yl)cyclohexyl)propane-1,3-diamine salt] gave an MIC [1, 5] of 4 µg/mL, an IC50 [2] of 35 µM and an MIC [3] of 4 µg/mL.
In the case of `Cc1cccc(C(CCNC2CCC(N)CC2)c2cn(CC3CCCCC3)c3ccc([N+](=O)[O-])cc23)c1` [Compound 425, (1S,4S)-N1-(3-(1-(cyclohexylmethyl)-5-nitro-1H-indol-3-yl)-3-(m-tolyl)propyl) cyclohexane-1,4-diamine hydrochloride salt], the MIC [1, 5] is reported as 2 µg/mL, the IC50 [2] is reported as 12 µM and the MIC [3] is reported as 8 µg/mL.
For `Cl.Cl.NCCCNCCC(c1cccc(C(F)(F)F)c1)c1cn(C2CCCCC2)c2ccccc12` (stereo not drawn) [Compound 351, N1-(3-(1-cyclohexyl-1H-indol-3-yl)-3-(3-(trifluoromethyl)phenyl)propyl)propane-1,3-diamine hydrochloride salt], the MIC [1, 5] was 4 µg/mL, the IC50 [2] was 16 µM and the MIC [3] was 4 µg/mL.
For `Cc1ccccc1C(CCNCCCN)c1cn(C2CCCCC2)c2ccccc12.Cl.Cl` (stereo not drawn) [Compound 345, N1-(3-(1-cyclohexyl-1H-indol-3-yl)-3-(o-tolyl)propyl)propane-1,3-diamine hydrochloride salt], the MIC [1, 5] was 8 µg/mL, the IC50 [2] was 41 µM and the MIC [3] was 4 µg/mL.
Molecule `NCCCNC1CCCC(c2cn(C3CCCCC3)c3ccc(C4CCCCC4)cc23)C1` (stereo not drawn) [Compound 420, N1-(3-(1,5-dicyclohexyl-1H-indol-3-yl)cyclohexyl)propane-1,3-diamine] has an MIC [1, 5] of 2 µg/mL (≈ 4.59 µM), an IC50 [2] of 8.4 µM and an MIC [3] of 2 µg/mL (≈ 4.59 µM).
In the case of `CCCCCCCCn1cc(C(CCNCCCN)C2CCCCC2)c2ccccc21.Cl.Cl` (stereo not drawn) [Compound 417, N1-(3-cyclohexyl-3-(1-octyl-1H-indol-3-yl)propyl)propane-1,3-diamine hydrochloride salt], the MIC [1, 5] is reported as 2 µg/mL, the IC50 [2] is reported as 2.8 µM and the MIC [3] is reported as 4 µg/mL.
Molecule `Cl.Cl.NCCCNCCC(c1cccc(Cl)c1)c1cn(C2CCCCC2)c2ccccc12` (stereo not drawn) [Compound 356, N1-(3-(3-chlorophenyl)-3-(1-cyclohexyl-1H-indol-3-yl)propyl) propane-1,3-diamine hydrochloride salt] has an MIC [1, 5] of 4 µg/mL, an IC50 [2] of 37 µM and an MIC [3] of 4 µg/mL.
With `Cc1cccc(C(CCNCCCN)c2cn(CC3CCCCC3)c3ccc([N+](=O)[O-])cc23)c1` (stereo not drawn) [Compound 424, N1-(3-(1-cyclohexylmethyl)-5-nitro-1H-indol-3-yl)-3-(m-tolyl)propyl)propane-1,3-diamine hydrochloride salt] the MIC [1, 5] was 2 µg/mL, the IC50 [2] was 8.5 µM and the MIC [3] was 4 µg/mL.
Work on `Cc1cccc(C(CCNCCCN)c2cn(C3CCCC3)c3ccccc23)c1.Cl.Cl` (stereo not drawn) [Compound 334, N1-(3-(1-cyclopentyl-1H-indol-3-yl)-3-(m-tolyl)propyl)propane-1,3-diamine hydrochloride salt] yielded an MIC [1, 5] of 8 µg/mL, an IC50 [2] of 68 µM and an MIC [3] of 8 µg/mL.
Work on `Cc1cccc(C(CCNC2CCNCC2)c2cn(C3CCCCC3)c3ccccc23)c1` (stereo not drawn) [Compound 309, N-(3-(1-cyclohexyl-1H-indol-3-yl)-3-(m-tolyl)propyl)piperidin-4-amine hydrochloride salt] yielded an MIC [1, 4] of 8 µg/mL, an IC50 [2] of 39 µM and an MIC [3] of 4 µg/mL.
`NCCCNCCC(c1cn(C2CCCCC2)c2ccccc12)C1CCCCC1` (stereo not drawn) [Compound 383, N1-(3-cyclohexyl-3-(1-cyclohexyl-1H-indol-3-yl)propyl)propane-1,3-diamine] gave an MIC [1, 5] of 4 µg/mL (≈ 10.1 µM), an IC50 [2] of 28 µM and an MIC [3] of 4 µg/mL (≈ 10.1 µM).
In the case of `Cl.Cl.NCCCNCCC(c1cn(C2CCCCC2)c2ccc(Br)cc12)C1CCCCC1` (stereo not drawn) [Compound 429, N1-(3-(5-bromo-1-cyclohexyl-1H-indol-3-yl)-3-cyclohexylpropyl) propane-1,3-diamine hydrochloride salt], the MIC [1, 5] is reported as 2 µg/mL, the IC50 [2] is reported as 11 µM and the MIC [3] is reported as 4 µg/mL.
Work on `FC(F)(F)Oc1cccc(-c2ccc3c(c2)c(C2CCCC(NC4CCNCC4)C2)cn3C2CCCCC2)c1` (stereo not drawn) [Compound 403, N-(3-(1-cyclohexyl-5-(3-(trifluoromethoxy)phenyl)-1H-indol-3-yl)cyclohexyl) piperidin-4-amine hydrochloride salt] yielded an MIC [1, 4] of 4 µg/mL, an IC50 [2] of 7 µM and an MIC [3] of 16 µg/mL.
For `Cc1cccc(C(CCNCCCNS(=O)(=O)c2ccc(F)cc2)c2cn(C3CCCCC3)c3ccccc23)c1` (stereo not drawn) [Compound 365, N-(3-((3-(1-cyclohexyl-1H-indol-3-yl)-3-(m-tolyl)propyl)amino)propyl)-4-fluorobenzenesulfonamide], the MIC [1, 5] was 4 µg/mL (≈ 7.12 µM), the IC50 [2] was 21 µM and the MIC [3] was > 128 µg/mL.
With `Cl.Cl.NCCCNCCC(c1cc(Cl)cc(Cl)c1)c1cn(C2CCCCC2)c2ccccc12` (stereo not drawn) [Compound 349, N1-(3-(1-cyclohexyl-1H-indol-3-yl)-3-(3,5-dichlorophenyl)propyl) propane-1,3-diamine hydrochloride salt] the MIC [1, 5] was 2 µg/mL, the IC50 [2] was 16 µM and the MIC [3] was 4 µg/mL.
Work on `N#Cc1ccc2c(c1)c(C(CCNC1CCNC1)C1CCCCC1)cn2C1CCCCC1` (stereo not drawn) [Compound 413, 1-cyclohexyl-3-(1-cyclohexyl-3-(pyrrolidin-3-ylamino)propyl)-1H-indole-5-carbonitrile hydrochloride salt] yielded an MIC [1, 4] of 4 µg/mL, an IC50 [2] of 20 µM and an MIC [3] of 8 µg/mL.
`Cc1cccc(C(CCNC2CCNCC2)c2cn(C3CCCC3)c3ccccc23)c1.Cl.Cl` (stereo not drawn) [Compound 333, N-(3-(1-cyclopentyl-1H-indol-3-yl)-3-(m-tolyl)propyl)piperidin-4-amine hydrochloride salt] gave an MIC [1, 5] of 16 µg/mL, an IC50 [2] of 89 µM and an MIC [3] of 8 µg/mL.
With `Cl.Cl.N#Cc1ccc2c(c1)c(C(CCNCCCN)C1CCCCC1)cn2C1CCCCC1` (stereo not drawn) [Compound 382, 3-(3-((3 - aminopropyl)amino)-1-cyclohexylpropyl)-1-cyclohexyl-1H-indole-5-carbonitrile hydrochloride salt] the MIC [1, 5] was 4 µg/mL, the IC50 [2] was 20 µM and the MIC [3] was 4 µg/mL.
`Cc1cccc(CC(CCNC2CCC(N)CC2)c2cn(C3CCCCC3)c3ccccc23)c1.Cl.Cl` [Compound 408, (1R,4R)-N1-(3-(1-cyclohexyl-1H-indol-3-yl)-4-(m-tolyl)butyl)cyclohexane-1,4-diamine hydrochloride salt] gave an MIC [1, 5] of 4 µg/mL, an IC50 [2] of 21 µM and an MIC [3] of 8 µg/mL.
Molecule `CCC(CC)C(CCNCCCN)c1cn(C2CCCCC2)c2ccccc12.Cl.Cl` (stereo not drawn) [Compound 416, N1-(3-(1-cyclohexyl-1H-indol-3-yl)-4-ethylhexyl)propane-1,3-diamine hydrochloride salt] has an MIC [1, 5] of 4 µg/mL, an IC50 [2] of 26 µM and an MIC [3] of 2 µg/mL.
